The source made the active and inactive calls. Cut-off read from the data, not from the text of the source, for most assays here: actives have a measured Kd and inactives only a lower limit. Bounds are passed on as bounds.

One assay concerns the target T1, Pyridoxal kinase (Homo sapiens, UniProt O00764).
T1 sequence (O00764 whole entry): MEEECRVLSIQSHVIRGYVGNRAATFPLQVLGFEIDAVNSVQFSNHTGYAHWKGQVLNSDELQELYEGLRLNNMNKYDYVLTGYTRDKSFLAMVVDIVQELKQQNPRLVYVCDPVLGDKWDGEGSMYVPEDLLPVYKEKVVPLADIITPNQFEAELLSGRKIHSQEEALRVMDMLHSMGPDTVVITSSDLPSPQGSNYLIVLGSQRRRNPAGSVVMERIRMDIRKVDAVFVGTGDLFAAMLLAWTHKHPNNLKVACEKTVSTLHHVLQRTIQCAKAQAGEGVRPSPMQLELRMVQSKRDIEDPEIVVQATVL

Assay [1] has as its target T2, AarF domain-containing protein kinase 1 (Homo sapiens, UniProt Q86TW2).
T2 sequence (Q86TW2 whole entry): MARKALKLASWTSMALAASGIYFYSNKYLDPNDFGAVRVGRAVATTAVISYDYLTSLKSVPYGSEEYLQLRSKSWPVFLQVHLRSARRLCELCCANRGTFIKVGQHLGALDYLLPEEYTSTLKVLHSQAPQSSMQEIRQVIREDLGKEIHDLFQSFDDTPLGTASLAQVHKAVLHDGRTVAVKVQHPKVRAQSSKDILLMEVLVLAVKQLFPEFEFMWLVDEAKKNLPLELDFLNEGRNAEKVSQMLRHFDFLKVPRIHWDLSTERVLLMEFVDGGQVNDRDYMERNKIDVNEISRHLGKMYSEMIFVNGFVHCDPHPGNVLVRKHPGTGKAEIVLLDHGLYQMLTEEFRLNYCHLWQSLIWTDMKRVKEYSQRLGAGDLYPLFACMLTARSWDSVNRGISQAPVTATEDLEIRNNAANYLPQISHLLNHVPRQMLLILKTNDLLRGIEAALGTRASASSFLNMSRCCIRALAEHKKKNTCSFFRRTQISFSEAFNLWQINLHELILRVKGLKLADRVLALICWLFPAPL

Assay [2] deals with ATP-dependent RNA helicase DDX3X (Homo sapiens, UniProt O00571).
Chain of ATP-dependent RNA helicase DDX3X (O00571 whole entry): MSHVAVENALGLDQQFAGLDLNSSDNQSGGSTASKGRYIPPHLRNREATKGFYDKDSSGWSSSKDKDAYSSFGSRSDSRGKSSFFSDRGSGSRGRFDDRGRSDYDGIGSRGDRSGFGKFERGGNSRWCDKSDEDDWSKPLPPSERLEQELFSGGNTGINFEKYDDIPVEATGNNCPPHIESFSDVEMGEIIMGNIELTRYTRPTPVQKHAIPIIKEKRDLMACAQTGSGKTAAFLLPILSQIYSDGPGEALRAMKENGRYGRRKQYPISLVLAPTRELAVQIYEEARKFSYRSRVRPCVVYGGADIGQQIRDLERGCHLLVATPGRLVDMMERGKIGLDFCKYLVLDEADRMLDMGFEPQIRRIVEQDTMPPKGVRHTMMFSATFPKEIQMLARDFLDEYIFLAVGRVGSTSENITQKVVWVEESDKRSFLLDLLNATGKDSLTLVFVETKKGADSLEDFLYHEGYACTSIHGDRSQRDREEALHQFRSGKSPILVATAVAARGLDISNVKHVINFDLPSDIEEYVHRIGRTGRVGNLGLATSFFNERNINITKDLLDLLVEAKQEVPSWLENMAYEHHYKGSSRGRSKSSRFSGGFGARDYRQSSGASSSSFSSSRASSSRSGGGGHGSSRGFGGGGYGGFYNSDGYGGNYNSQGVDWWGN
Assay [3] deals with Rho-associated protein kinase 2 (Homo sapiens, UniProt O75116).
Chain of Rho-associated protein kinase 2 (O75116 whole entry): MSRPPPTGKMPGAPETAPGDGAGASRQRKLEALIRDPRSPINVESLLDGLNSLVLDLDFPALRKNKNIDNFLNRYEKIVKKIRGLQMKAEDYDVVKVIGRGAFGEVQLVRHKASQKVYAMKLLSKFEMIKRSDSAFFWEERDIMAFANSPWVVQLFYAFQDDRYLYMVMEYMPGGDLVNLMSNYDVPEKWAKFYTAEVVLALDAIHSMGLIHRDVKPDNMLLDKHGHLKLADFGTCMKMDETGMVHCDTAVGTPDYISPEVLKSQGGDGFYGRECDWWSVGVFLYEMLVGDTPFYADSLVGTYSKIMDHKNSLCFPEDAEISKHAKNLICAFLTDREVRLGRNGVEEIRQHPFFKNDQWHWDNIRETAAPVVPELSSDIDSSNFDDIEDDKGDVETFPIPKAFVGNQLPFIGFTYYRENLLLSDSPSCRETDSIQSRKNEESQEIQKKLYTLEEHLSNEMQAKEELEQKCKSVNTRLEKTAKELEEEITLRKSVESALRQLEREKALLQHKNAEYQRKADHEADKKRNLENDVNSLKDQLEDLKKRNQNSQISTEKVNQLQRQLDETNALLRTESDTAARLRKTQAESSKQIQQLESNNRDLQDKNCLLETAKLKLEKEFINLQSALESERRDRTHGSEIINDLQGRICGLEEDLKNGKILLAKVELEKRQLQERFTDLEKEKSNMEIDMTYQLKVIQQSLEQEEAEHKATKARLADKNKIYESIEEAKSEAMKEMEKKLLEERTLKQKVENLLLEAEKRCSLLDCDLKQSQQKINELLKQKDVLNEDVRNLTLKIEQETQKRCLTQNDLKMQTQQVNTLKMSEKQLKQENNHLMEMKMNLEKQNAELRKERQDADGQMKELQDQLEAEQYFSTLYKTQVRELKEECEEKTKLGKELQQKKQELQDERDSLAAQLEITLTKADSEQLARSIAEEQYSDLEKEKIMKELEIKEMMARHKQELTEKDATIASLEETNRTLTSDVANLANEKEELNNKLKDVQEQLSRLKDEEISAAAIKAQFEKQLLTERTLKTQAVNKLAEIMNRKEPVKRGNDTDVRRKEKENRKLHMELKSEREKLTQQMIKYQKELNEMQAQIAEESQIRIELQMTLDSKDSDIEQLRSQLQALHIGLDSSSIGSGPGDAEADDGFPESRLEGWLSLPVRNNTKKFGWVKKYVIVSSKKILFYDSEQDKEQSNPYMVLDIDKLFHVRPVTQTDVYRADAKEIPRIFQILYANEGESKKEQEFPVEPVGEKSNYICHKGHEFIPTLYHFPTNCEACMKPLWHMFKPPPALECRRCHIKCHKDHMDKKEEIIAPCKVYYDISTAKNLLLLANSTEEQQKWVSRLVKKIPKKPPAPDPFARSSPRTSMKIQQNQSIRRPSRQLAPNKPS
Assay [4] addresses T3, Glycogen phosphorylase, liver form (Homo sapiens, UniProt P06737).
T3 sequence (P06737 whole entry): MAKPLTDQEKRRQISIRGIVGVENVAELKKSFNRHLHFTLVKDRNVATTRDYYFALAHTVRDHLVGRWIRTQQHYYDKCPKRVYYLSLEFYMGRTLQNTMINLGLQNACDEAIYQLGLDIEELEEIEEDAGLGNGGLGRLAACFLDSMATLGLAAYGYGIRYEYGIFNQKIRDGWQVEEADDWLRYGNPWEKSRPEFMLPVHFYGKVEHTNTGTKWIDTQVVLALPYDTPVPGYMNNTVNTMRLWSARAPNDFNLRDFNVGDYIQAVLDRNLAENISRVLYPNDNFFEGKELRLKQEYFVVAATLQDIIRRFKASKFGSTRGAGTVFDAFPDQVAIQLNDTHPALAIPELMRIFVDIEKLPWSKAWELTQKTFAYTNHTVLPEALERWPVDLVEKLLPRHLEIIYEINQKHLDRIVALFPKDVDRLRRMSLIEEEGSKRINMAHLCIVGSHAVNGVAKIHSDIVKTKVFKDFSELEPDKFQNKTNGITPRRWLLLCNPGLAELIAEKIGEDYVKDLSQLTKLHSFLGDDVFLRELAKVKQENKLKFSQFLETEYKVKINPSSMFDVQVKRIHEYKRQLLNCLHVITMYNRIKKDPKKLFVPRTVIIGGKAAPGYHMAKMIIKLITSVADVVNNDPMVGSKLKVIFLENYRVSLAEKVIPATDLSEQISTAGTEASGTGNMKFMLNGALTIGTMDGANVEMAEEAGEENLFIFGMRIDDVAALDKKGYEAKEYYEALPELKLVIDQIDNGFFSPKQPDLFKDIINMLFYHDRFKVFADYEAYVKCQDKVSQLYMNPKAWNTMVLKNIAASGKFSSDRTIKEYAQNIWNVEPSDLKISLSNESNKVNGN
The class given is subcellular, K-562, COLO 205, SK-N-BE(2) and MV-4-11, Cell lysate. As to conditions: read-out: Kd apparent.

The target of assay [5] is T4, Ras-related protein Rab-27A (Homo sapiens, UniProt P51159).
T4 sequence (P51159 whole entry): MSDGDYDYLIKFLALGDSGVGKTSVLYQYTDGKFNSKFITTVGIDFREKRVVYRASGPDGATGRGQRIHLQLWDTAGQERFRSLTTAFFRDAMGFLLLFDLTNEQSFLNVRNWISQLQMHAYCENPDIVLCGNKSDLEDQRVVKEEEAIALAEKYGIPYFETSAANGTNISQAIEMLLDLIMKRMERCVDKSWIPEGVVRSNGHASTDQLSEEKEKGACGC

Assay [6] concerns the target Protein kinase C alpha type (Homo sapiens, UniProt P17252).
Assay [7] deals with AP2-associated protein kinase 1 (Homo sapiens, UniProt Q2M2I8).
Chain of AP2-associated protein kinase 1 (Q2M2I8 whole entry): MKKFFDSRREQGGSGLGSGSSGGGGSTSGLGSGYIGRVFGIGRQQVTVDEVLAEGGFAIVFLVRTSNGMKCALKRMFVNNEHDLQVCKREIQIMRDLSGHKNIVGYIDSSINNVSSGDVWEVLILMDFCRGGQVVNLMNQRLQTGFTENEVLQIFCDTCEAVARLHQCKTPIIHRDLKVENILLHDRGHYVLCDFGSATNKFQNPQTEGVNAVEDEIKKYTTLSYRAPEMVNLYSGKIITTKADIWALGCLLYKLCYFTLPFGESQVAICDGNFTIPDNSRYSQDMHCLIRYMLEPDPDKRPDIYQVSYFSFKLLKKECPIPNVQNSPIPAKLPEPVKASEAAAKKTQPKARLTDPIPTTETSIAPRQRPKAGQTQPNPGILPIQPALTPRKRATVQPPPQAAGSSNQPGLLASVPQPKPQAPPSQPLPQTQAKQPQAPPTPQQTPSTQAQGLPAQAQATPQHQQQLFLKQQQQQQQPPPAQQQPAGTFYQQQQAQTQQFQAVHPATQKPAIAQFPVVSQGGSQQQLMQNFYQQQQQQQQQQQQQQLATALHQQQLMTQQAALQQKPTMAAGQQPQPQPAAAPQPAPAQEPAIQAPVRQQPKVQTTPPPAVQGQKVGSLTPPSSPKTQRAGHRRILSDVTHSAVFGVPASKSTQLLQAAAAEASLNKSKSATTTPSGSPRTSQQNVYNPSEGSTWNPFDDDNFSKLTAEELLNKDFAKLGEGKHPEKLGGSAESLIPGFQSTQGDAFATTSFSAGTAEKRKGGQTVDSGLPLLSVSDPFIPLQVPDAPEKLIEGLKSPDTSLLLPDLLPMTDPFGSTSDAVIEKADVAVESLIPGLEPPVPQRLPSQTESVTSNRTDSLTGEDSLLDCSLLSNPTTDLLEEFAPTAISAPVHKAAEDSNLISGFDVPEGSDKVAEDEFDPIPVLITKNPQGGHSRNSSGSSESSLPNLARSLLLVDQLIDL
The target of assay [8] is Cyclin-dependent kinase 2 (Homo sapiens, UniProt P24941).
The target of assay [9] is S-adenosylmethionine synthase isoform type-2 (Homo sapiens, UniProt P31153).
Chain of S-adenosylmethionine synthase isoform type-2 (P31153 whole entry, canonical isoform): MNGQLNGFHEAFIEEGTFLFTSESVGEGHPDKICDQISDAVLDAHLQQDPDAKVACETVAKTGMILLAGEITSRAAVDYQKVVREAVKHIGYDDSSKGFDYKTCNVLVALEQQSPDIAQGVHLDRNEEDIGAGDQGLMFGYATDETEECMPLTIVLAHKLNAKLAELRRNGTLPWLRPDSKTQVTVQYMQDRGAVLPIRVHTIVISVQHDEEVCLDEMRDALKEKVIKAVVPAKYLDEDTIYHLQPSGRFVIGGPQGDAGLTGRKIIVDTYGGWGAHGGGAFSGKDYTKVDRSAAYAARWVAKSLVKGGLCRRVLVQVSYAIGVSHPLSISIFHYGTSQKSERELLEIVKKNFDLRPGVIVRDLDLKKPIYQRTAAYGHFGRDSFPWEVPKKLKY
The target in assay [10] is T5, Serine/threonine-protein kinase Nek2 (Homo sapiens, UniProt P51955).
T5 sequence (P51955 whole entry): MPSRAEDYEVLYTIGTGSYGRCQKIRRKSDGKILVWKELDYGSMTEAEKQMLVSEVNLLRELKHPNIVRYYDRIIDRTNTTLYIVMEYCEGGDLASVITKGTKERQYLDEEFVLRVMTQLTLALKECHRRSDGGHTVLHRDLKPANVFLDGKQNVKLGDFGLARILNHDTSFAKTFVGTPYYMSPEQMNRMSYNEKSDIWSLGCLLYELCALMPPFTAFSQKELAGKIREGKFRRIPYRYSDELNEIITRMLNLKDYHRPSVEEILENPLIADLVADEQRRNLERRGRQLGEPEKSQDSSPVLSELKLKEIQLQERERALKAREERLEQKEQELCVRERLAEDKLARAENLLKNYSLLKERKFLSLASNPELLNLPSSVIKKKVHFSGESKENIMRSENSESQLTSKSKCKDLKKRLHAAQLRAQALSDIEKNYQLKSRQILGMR

Another assay deals with TGF-beta receptor type-2 (Homo sapiens, UniProt P37173).
Chain of TGF-beta receptor type-2 (P37173 whole entry, canonical isoform): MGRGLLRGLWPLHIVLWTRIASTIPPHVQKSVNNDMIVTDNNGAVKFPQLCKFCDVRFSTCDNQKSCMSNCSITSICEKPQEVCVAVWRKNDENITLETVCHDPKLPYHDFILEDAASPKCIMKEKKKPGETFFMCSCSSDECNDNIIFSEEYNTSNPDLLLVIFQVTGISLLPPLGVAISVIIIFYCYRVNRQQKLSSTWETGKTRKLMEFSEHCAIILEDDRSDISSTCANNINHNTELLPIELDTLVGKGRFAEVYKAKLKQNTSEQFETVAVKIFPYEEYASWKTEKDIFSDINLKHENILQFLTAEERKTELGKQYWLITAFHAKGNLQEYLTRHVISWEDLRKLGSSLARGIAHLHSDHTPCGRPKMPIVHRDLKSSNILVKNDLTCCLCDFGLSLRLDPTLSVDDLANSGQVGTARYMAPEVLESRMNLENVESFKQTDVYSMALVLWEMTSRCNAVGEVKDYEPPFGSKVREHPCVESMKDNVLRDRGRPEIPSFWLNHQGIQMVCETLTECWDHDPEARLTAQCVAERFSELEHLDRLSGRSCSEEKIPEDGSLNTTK
Assay [11] concerns the target Casein kinase I isoform epsilon (Homo sapiens, UniProt P49674).
Note: in the data inactive means no Kd found up to 30 µM.

Chain of Casein kinase I isoform epsilon (P49674 whole entry, canonical isoform): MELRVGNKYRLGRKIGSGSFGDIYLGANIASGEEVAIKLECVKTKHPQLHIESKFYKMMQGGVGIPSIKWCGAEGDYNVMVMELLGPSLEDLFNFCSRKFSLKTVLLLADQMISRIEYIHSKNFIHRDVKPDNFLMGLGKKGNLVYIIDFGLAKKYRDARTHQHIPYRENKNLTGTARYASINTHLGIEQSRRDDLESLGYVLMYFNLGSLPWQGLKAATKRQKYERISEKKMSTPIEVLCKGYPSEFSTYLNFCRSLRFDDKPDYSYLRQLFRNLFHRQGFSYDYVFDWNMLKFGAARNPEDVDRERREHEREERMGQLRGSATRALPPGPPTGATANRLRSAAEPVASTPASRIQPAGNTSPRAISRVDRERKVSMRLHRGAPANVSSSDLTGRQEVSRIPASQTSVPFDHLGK

Take `O[C@H]1CC[C@H](Nc2ncc3nc(Nc4c(F)cc(F)cc4F)n([C@H]4CCOC4)c3n2)CC1` [TANZISERTIB]: the Kd (on Pyridoxal kinase; in assay [1]; in [2]; in assay [3]; in assay [4]; in [5]) was > 30 µM (inactive) in each case. In addition, the Kd (in assay [6]; in assay [7]; in assay [8]; in [9]; in [10]; at TGF-beta receptor type-2) was > 30 µM (inactive) each time. In addition, the Kd in assay [11] is > 30 µM (inactive).

`COc1cccc2cc(-c3nc([C@H]4CC[C@H](C(=O)O)CC4)n4ncnc(N)c34)[nH]c12` [OSI-027]: the Kd (on Pyridoxal kinase; in [1]; in [2]; in assay [3]; in assay [4]; in [5]) was > 30 µM (inactive) each time. Moreover, the Kd (in assay [6]; in [7]; in assay [8]; in assay [9]; in assay [10]; at TGF-beta receptor type-2) was > 30 µM (inactive) each time. Further, in [11], the Kd is > 30 µM (inactive).

Turning to `O=c1[nH]c([C@@H]2CCCN2)nc2c1oc1ccc(Cl)cc12`, the Kd (at Pyridoxal kinase; in assay [1]; in [2]; in [3]; in assay [4]; in assay [5]) was > 30 µM (inactive) throughout. Moreover, the Kd (in assay [6]; in assay [7]; in [8]; in assay [9]; in assay [10]; on TGF-beta receptor type-2) was > 30 µM (inactive) each time. In assay [11], the Kd was > 30 µM (inactive).

Regarding `O=C(Nc1ccc(OC(F)(F)F)cc1)c1sccc1NCc1ccnc2ccccc12` [OSI-930], the Kd (at Pyridoxal kinase; in assay [1]; in assay [2]; in [3]; in [4]; in assay [5]) was > 30 µM (inactive) in each case. The Kd (in assay [6]; in [7]; in [8]; in [9]; in [10]; at TGF-beta receptor type-2) was > 30 µM (inactive) each time. In assay [11], the Kd is > 30 µM (inactive).

For the compound `CNC(=O)c1ccc(Nc2ncc(C(F)(F)F)c(NCc3nccnc3N(C)S(C)(=O)=O)n2)cc1` [DEFACTINIB], the Kd (on Pyridoxal kinase; in assay [1]; in [2]; in assay [3]; in [4]; in [5]) was > 30 µM (inactive) in each case. For the same compound, the Kd in assay [6] is > 30 µM (inactive); in assay [7] it was > 30 µM (inactive); in [8], 1.66 µM; in [9], > 30 µM (inactive); in assay [10], > 30 µM (inactive); on TGF-beta receptor type-2, > 30 µM (inactive). The Kd in [11] is > 30 µM (inactive).

`CC[C@@](C)(Nc1ccnc(-c2c[nH]c3ncccc23)n1)C(=O)NCC(F)(F)F` [DECERNOTINIB]: the Kd is > 30 µM (inactive) at Pyridoxal kinase; > 30 µM (inactive) in assay [1]; > 30 µM (inactive) in [2]; 56.1 µM (active) in [3]; > 30 µM (inactive) in [4]; > 30 µM (inactive) in [5]. The Kd in assay [6] was 0.117 µM (active); in assay [7], 4.25 µM (active); in [8], > 30 µM (inactive); in [9] it was > 30 µM (inactive); in assay [10], > 30 µM (inactive); at TGF-beta receptor type-2, > 30 µM (inactive). Also, in assay [11], the Kd is > 30 µM (inactive).

On to `C[C@@H]1COC(Nc2ccc3ncnc(Nc4ccc(OCc5nccs5)c(Cl)c4)c3c2)=N1` [VARLITINIB], for which the Kd (on Pyridoxal kinase; in [1]; in assay [2]; in assay [3]; in [4]; in [5]) was > 30 µM (inactive) in each case. Also, the Kd (in assay [6]; in assay [7]; in [8]; in [9]; in [10]; at TGF-beta receptor type-2) was > 30 µM (inactive) in each case. Further, the Kd in assay [11] was > 30 µM (inactive).

On to `O=C(NOC[C@H](O)CO)c1ccc(F)c(F)c1Nc1ccc(I)cc1F` [MIRDAMETINIB], for which the Kd (at Pyridoxal kinase; in [1]; in assay [2]; in assay [3]; in assay [4]; in assay [5]) was > 30 µM (inactive) throughout. Moreover, the Kd (in [6]; in assay [7]; in [8]; in assay [10]; at TGF-beta receptor type-2; in [11]) was > 30 µM (inactive) throughout.

The values are drawn from ChEMBL document CHEMBL3991601, “The target landscape of clinical kinase drugs” (Science, 2017).
